Source: the OPERA property sets (Mansouri et al. 2018)

Conditions: for log10 biotransformation half-life (days) / log10 BCF: fish

SMILES	boiling point	melting point	further results
Clc1ccc(C(c2ccc(Cl)cc2)C(Cl)Cl)cc1	350 °C	110 °C	log10 Henry constant (atm·m³/mol): -5.18; log10 Koa: 10.1; log10 Koc (L/kg): 4.21; log10 vapour pressure (mmHg): -5.87; log10 biotransformation half-life (days): 2.44
NC(=O)c1c(Cl)c(Cl)c(Cl)c(Cl)c1C(=O)O			log10 BCF: 0.49
Cc1c([N+](=O)[O-])cc2c(c1[N+](=O)[O-])C(C)(C)CC2(C)C		132 °C	
O=C[O-].[K+]		167 °C	
NC(=O)c1ccc(N)nc1		246 °C	
CCCCN(CCN(CCCC)C(=O)N1CCOCC1)C(=O)N1CCOCC1		41.5 °C	
CC1(C)CCC(C)(C)C1	118 °C	-88.4 °C	
CCCC(=O)N(CSP(=S)(OC)OC)c1ccccc1Cl		42 °C	
CCCCNC(=O)n1c(NC(=O)OC)nc2ccccc21			log10 Henry constant (atm·m³/mol): -11.3; log10 Koc (L/kg): 2.71; log10 vapour pressure (mmHg): -8.43
Cc1ccc(CO)cc1	217 °C	61.5 °C	
CC(=O)Oc1cc(C)ccc1C	237 °C		
C=CC1(C)CC(OC(=O)CO)C2(C)C(C)CCC3(CCC(=O)C32)C(C)C1O (centres undefined)		170 °C	
CC1(N)CCCC1	121 °C		
O=C1NC(=O)c2c1cccc2[N+](=O)[O-]		214 °C	
CCCCCC(C)(C)CC	161 °C		
COC(=O)C(Cl)Cl	143 °C	-51.9 °C	log10 vapour pressure (mmHg): 0.654
CC(C)C12C=CC(C)(CC1)OO2 (centres undefined)		3.3 °C	
CC(=O)OC[C@H]1OC(OC(C)=O)[C@H](OC(C)=O)[C@@H](OC(C)=O)[C@@H]1OC(C)=O (some centres undefined)		124 °C	
C=CCCCCCCCCCCCCC	268 °C	-2.8 °C	log10 vapour pressure (mmHg): -2.34
O=Cc1ccccc1C=O		56.5 °C	
Nc1ccc(Cl)cc1Cl	245 °C	63.5 °C	log10 Koc (L/kg): 2.72; ready biodegradability: not readily biodegradable; log10 BCF: 1.36; log10 biotransformation half-life (days): -0.65
Cc1cc(C)c(O)cc1O	276 °C	126 °C	
CC(=O)OCCOCCOC(C)=O	200 °C	18 °C	
CC(Oc1ccc(Oc2ccc(Cl)cc2Cl)cc1)C(=O)O (centres undefined)		120 °C	
CCCC(N)CCC	140 °C		

SMILES	boiling point	melting point	further results
COc1cccc(-c2cccc(OC)c2)c1	328 °C	36 °C	
CCCCCCCCCCCCCCCCCCOCC(O)CO (centres undefined)		70.5 °C	
Cc1cc(F)ccc1N		14.2 °C	
O=C(O)COc1ccc2ccccc2c1		156 °C	
CCOC(=O)C(NC=O)C(=O)OCC		48.5 °C	
CCCCCC(=O)O	205 °C	-3 °C	log10 Henry constant (atm·m³/mol): -6.12; log10 Koc (L/kg): 1.46; log10 vapour pressure (mmHg): -1.36; ready biodegradability: readily biodegradable
C=C(Cl)C(C)Cl (centres undefined)	112 °C		
COc1cccc(CO)c1	252 °C		
ClCc1cccc(CCl)c1	252 °C	34.2 °C	
O=C(OCCO)c1ccccc1O		37 °C	
C[Si](C)(C)CCl	98.5 °C		
COc1cccc(CO)c1O		61.5 °C	
CCNc1nc(NC(C)(C)C)nc(OC)n1		124 °C	log10 vapour pressure (mmHg): -5.7
CC(=O)S[C@H]1CC(=O)C=C2C[C@@H](SC(C)=O)[C@@H]3[C@H](CC[C@@]4(C)[C@H]3CC[C@]4(C)O)[C@]21C		206 °C	
CCOP(=S)(OCC)Oc1cc(-c2ccccc2)on1			log10 BCF: 2.61; log10 biotransformation half-life (days): 1.05
CCCC=NO	154 °C	-29.5 °C	
CC(=O)N(O)CCCCCNC(=O)CCC(=O)N(O)CCCCCNC(=O)CCC(=O)N(O)CCCCCN		140 °C	
Nc1c(Br)cc(O)c2c1C(=O)c1ccccc1C2=O			ready biodegradability: not readily biodegradable
CCCCCCCCCCCCCl	260 °C	-9.3 °C	log10 vapour pressure (mmHg): -2.2; ready biodegradability: readily biodegradable
CCOP(=S)(OCC)ON=C(C#N)c1ccccc1			log10 biotransformation half-life (days): 0.84
O=C1CN=C(c2ccccc2Cl)c2cc([N+](=O)[O-])ccc2N1		238 °C	
O=P(OCCCl)(OCCCl)OCCCl	330 °C	-35 °C	log10 vapour pressure (mmHg): -1.21; ready biodegradability: not readily biodegradable; log10 BCF: 0.11; log10 biotransformation half-life (days): -0.66
CC=C(Cl)CCl	130 °C		
FC(Cl)(Cl)C(Cl)Cl	116 °C	-82.6 °C	
